According to patent US20250339409A1, “USES OF PAN BET INHIBITORS” (VYNE THERAPEUTICS INC., priority 2021, published 2025):

Key:
[1] = tested on: IL-1β, IL-6, IL-8, IL-17, IL-18, IL-23, IL-36 and TNF-α; experiment: Serum pro-inflammatory cytokine assays (Luminex, ELISA) in the imiquimod model; format: in vivo, female Balb/c mice; settings: imiquimod-induced mice
Protocol: Immediately after the TEWL measurements on D14, mice are maintained under gas anesthesia and blood is taken from each mouse by intracardiac puncture. Blood samples are placed at +4° C. for 20 to 30 minutes before being centrifuged at 3000 rpm and +4° C. for 20 minutes. Serum is collected, frozen at −20° C. and then stored at −80° C. awaiting serum biomarkers assays (cytokines).
Assays of the 8 pro-inflammatory cytokines IL-1β, IL-6, IL-8, IL-17, IL-18, IL-23, IL-36 and TNF-α associated with psoriasis and other inflammatory diseases is performed on the isolated and frozen serum samples from blood collected at the end of the experiment on mice of the 7 experimental groups 1 to 7.
The Luminex® technique using magnetic beads technology and ProcartaPlex® immunoassay kit from the Invitrogen division of Thermofisher Scientific is used to perform the assays of the 7 multiplexed cytokines IL-1β, IL-6, IL-8, IL-17, IL-18, IL-23, and TNF-α. Analyte-specific antibodies for the 7 cytokines is pre-coated onto color-coded magnetic microparticles. Microparticles, standards and serum samples (non-diluted as recommended in the instruction manual) is pipetted into wells and the immobilized antibodies bind the analytes of interest. After washing away any unbound substances, a biotinylated antibody cocktail specific to the analytes of interest is added to each well. Following a wash to remove any unbound biotinylated antibody, streptavidin-phycoerythrin conjugate (Streptavidin-PE), which binds to the biotinylated antibody, is added to each well. A final wash removes unbound Streptavidin-PE and the microparticles is resuspended in buffer and read using a Bio-Rad Bio-Plex 200 Analyzer. A magnet in the analyzer captures and holds the superparamagnetic microparticles in a monolayer. Two spectrally distinct Light Emitting Diodes (LED) illuminate the microparticles. One LED identifies the analyte detected and the second LED determines the magnitude of the PE-derived signal, which is in direct proportion to the amount of the analyte bound. Each well is imaged with a Charged Coupled Device (CCD) camera. A representative standard curve from the 7 cytokines is diluted in a serial fourfold steps in specific standard buffer. Each standard, control and serum sample is analyzed in duplicate.
Quantitative sandwich Enzyme-Linked ImmunoSorbent Assay (ELISA) using mouse IL-36 immunoassay kit from the Invitrogen division of Thermofisher Scientific is used to perform the assay. A purified anti-mouse polyclonal antibody against the specific antigen IL-36 pre-coated onto a microplate is used. Standard, control, and serum samples, as recommended in the instruction manual, are pipetted into the wells and any mouse specific antigen present is bound by the immobilized antibody. After washing away any unbound substances, a biotin-conjugated anti-mouse IL-36 antibody is incubated in each well. Then, after washing, streptavidin-Horseradish Peroxidase (HRP) complex is added to the wells, allowing non-covalent biological interaction with biotin. Following several washes to remove any unbound complex, a TetraMethylBenzidine (TMB) substrate solution is added to the wells. The enzyme reaction yields a blue product that turns yellow when the stop solution is added. The intensity of the colour is measured at 450 nm and 570 nm using a microplate reader. The values of 570 nm are subtracted from those of 450 nm and data is in proportion to the amount of […] bound in the initial step. The serum samples values are then read off the standard curves. A representative standard curve from IL-36 is diluted in a serial two folds step in assay buffer. Each standard, control and serum sample is analyzed in duplicate.

[2] = tested on: anti collagen antibodies induced arthritis (ACAIA); experiment: ACAIA mice: hot plate withdrawal latency; format: in vivo, Balb/c mice
Protocol: On days 0, 5 and 11 animals are placed on hot plate apparatus (53±1° C.) and the time until the first response is observed and recorded.

[3] = Solubility of BETi1 in water (HPLC) and in solvents (visual observation); format: physicochemical; settings: sample of 0.04 mg/g (0.004%) in NaCMC/saline

With `Cn1cc(-c2cccc(O)c2Oc2ccccc2)c2cc[nH]c2c1=O` [BETi1] the “Inflammatory Biomarkers, Mean score values, IL-1β” value (from here on “Inflammatory Biomarkers … IL-1β”) ([1]; D14, listed as BETi1 0.001%) was 49.00 pg/mL, the “Inflammatory Biomarkers, Mean score values, IL-6” value (“Inflammatory Biomarkers … IL-6” for short) ([1]; D14, listed as BETi1 0.001%) was 123.25 pg/mL and the “Inflammatory Biomarkers, Mean score values, IL-8” value (“Inflammatory Biomarkers … IL-8” below) ([1]; D14, listed as BETi1 0.001%) was 41.82 pg/mL. For the same molecule, the “Inflammatory Biomarkers, Mean score values, IL-17” value (shortened to “Inflammatory Biomarkers … IL-17”) ([1]; D14, listed as BETi1 0.001%) was 74.77 pg/mL, the “Inflammatory Biomarkers, Mean score values, IL-18” value (from here on “Inflammatory Biomarkers … IL-18”) ([1]; D14, listed as BETi1 0.001%) was 241.77 pg/mL and the “Inflammatory Biomarkers, Mean score values, IL-23” value (“Inflammatory Biomarkers … IL-23” for short) ([1]; D14, listed as BETi1 0.001%) was 51.02 pg/mL. The “Inflammatory Biomarkers, Mean score values, IL-36” value (“Inflammatory Biomarkers … IL-36” for short) ([1]; D14, listed as BETi1 0.001%) was 65.63 pg/mL, the “Inflammatory Biomarkers, Mean score values, TNF-α” value (“Inflammatory Biomarkers … TNF-α” for short) ([1]; D14, listed as BETi1 0.001%) was 36.20 pg/mL and the “Inflammatory Biomarkers … IL-1β” value ([1]; D14, listed as BETi1 0.1%) was 24.31 pg/mL. For the same molecule, the “Inflammatory Biomarkers … IL-6” value ([1]; D14, listed as BETi1 0.1%) was 56.29 pg/mL, the “Inflammatory Biomarkers … IL-8” value ([1]; D14, listed as BETi1 0.1%) was 21.40 pg/mL and the “Inflammatory Biomarkers … IL-17” value ([1]; D14, listed as BETi1 0.1%) was 25.08 pg/mL. For the same molecule, the “Inflammatory Biomarkers … IL-18” value ([1]; D14, listed as BETi1 0.1%) was 138.90 pg/mL, the “Inflammatory Biomarkers … IL-23” value ([1]; D14, listed as BETi1 0.1%) was 20.66 pg/mL and the “Inflammatory Biomarkers … IL-36” value ([1]; D14, listed as BETi1 0.1%) was 26.91 pg/mL. The “Inflammatory Biomarkers … TNF-α” value ([1]; D14, listed as BETi1 0.1%) was 18.27 pg/mL, the “Inflammatory Biomarkers … IL-1β” value ([1]; D14, listed as BETi1 1.0%) was 39.46 pg/mL and the “Inflammatory Biomarkers … IL-6” value ([1]; D14, listed as BETi1 1.0%) was 96.09 pg/mL. For the same molecule, the “Inflammatory Biomarkers … IL-8” value ([1]; D14, listed as BETi1 1.0%) was 23.50 pg/mL, the “Inflammatory Biomarkers … IL-17” value ([1]; D14, listed as BETi1 1.0%) was 54.13 pg/mL and the “Inflammatory Biomarkers … IL-18” value ([1]; D14, listed as BETi1 1.0%) was 202.85 pg/mL. The “Inflammatory Biomarkers … IL-23” value ([1]; D14, listed as BETi1 1.0%) was 33.19 pg/mL, the “Inflammatory Biomarkers … IL-36” value ([1]; D14, listed as BETi1 1.0%) was 52.58 pg/mL and the “Inflammatory Biomarkers … TNF-α” value ([1]; D14, listed as BETi1 1.0%) was 25.05 pg/mL. For the same molecule, the “Inflammatory Biomarkers … IL-1β” value ([1]; D14, listed as BETi10.01%) was 32.62 pg/mL, the “Inflammatory Biomarkers … IL-6” value ([1]; D14, listed as BETi10.01%) was 74.31 pg/mL and the “Inflammatory Biomarkers … IL-8” value ([1]; D14, listed as BETi10.01%) was 30.82 pg/mL. The “Inflammatory Biomarkers … IL-17” value ([1]; D14, listed as BETi10.01%) was 33.44 pg/mL, the “Inflammatory Biomarkers … IL-18” value ([1]; D14, listed as BETi10.01%) was 146.86 pg/mL and the “Inflammatory Biomarkers … IL-23” value ([1]; D14, listed as BETi10.01%) was 30.04 pg/mL. The “Inflammatory Biomarkers … IL-36” value ([1]; D14, listed as BETi10.01%) was 30.38 pg/mL, the “Inflammatory Biomarkers … TNF-α” value ([1]; D14, listed as BETi10.01%) was 22.16 pg/mL and the “Hot Plate Change in withdrawal latency (Avg.)” value (“Hot Plate Change” for short) ([2]; 0.01 mg/kg IA, Baseline) was 11.57 s. The “Hot Plate Change” value ([2]; 0.01 mg/kg IA, Day 5) was 11.86 s, the “Hot Plate Change” value ([2]; 0.01 mg/kg IA, Day 11) was 12.00 s and the “Hot Plate Change” value ([2]; 0.1 mg/kg IA, Baseline) was 11.14 s. The “Hot Plate Change” value ([2]; 0.1 mg/kg IA, Day 5) was 10.43 s, the “Hot Plate Change” value ([2]; 0.1 mg/kg IA, Day 11) was 9.57 s and the “Hot Plate Change” value ([2]; 1 mg/kg IA, Baseline) was 11.71 s. For the same molecule, the “Hot Plate Change” value ([2]; 1 mg/kg IA, Day 5) was 11.57 s, the “Hot Plate Change” value ([2]; 1 mg/kg IA, Day 11) was 11.29 s and the “Hot Plate Change” value ([2]; 10 mg/kg IA, Baseline) was 10.57 s. For the same molecule, the “Hot Plate Change” value ([2]; 10 mg/kg IA, Day 5) was 12.00 s, the “Hot Plate Change” value ([2]; 10 mg/kg IA, Day 11) was 11.00 s and the “fraction of API in undissolved form” value [3] was “approximately 90%”.
